Each structure is given as a SMILES string.

For one assay, the system named is Lipoxygenase in PMN Leucocytes. Nature of the assay: Inhibition of lipoxygenase in PMN leucocytes (liberation of 5-HETE and leukotriene B4). The class given is cell-based, humans and rabbits. The following applies: in vitro. As for the experimental part: The polymorphonuclear leucocytes of humans and of rabbits metabolise arachidonic acid to 5-hydroxy-5,8,11,14-eicosatetraenoic acid (5-HETE) and leukotriene B4 (5S, 12R-dihydroxy-6 cis, 8,10-trans-14 cis-eicosatetraenoic acid). The inhibition of the liberation of 5-HETE and leukotriene B4 from the leucocytes provides a measure of the lipoxygenase-inhibitory effect of the compounds according to the invention. (Compare Table 1).
The test with human leucocytes is carried out by the method of Borgeat and Samuelsson (j. Biol. Chem. 254; 2643, 1979 and Proc. Natl. Acad. Sci. USA, 76, 2148 (1979), and with rabbit leucocytes by the method of Walker and Parish (Inter. Archs. Allergy appl. Immun. 66, 83, 1981).
Consider `CCN1c2cc(OC)ccc2Oc2cn[nH]c21`, for which the “Minimum concentration (g/ml) for inhibition of Lipoxygenase in PMN Leucocytes” value was < 10^-6 g/ml.
Turning to `Cn1cc2c(n1)N(CC1CCCCC1)c1ccccc1O2`, the “Minimum concentration (g/ml) for inhibition of Lipoxygenase in PMN Leucocytes” value is listed as > 10^-5 g/ml.
For `CN1c2ccccc2Oc2cn(C(=O)c3ccccn3)nc21` [drawing 53], the “Minimum concentration (g/ml) for inhibition of Lipoxygenase in PMN Leucocytes” value was > 10^-5 g/ml.
In the case of `FC(F)(F)Sc1ccc2c(c1)Nc1[nH]ncc1O2`, the “Minimum concentration (g/ml) for inhibition of Lipoxygenase in PMN Leucocytes” value is < 10^-5 g/ml.
On the same count and under the same terms, under `c1ccc(CN2c3ccccc3Oc3cn[nH]c32)cc1` stands 10^-6 g/ml.
As for `CN1c2cc(OCc3ccccc3)ccc2Oc2cn[nH]c21`, the “Minimum concentration (g/ml) for inhibition of Lipoxygenase in PMN Leucocytes” value is < 10^-5 g/ml.
For `Oc1ccc2c(c1)Nc1[nH]ncc1O2`, the “Minimum concentration (g/ml) for inhibition of Lipoxygenase in PMN Leucocytes” value is given as < 10^-6 g/ml.
With `CCOC(=O)Cn1cc2c(n1)N(C1CCCCC1)c1ccccc1O2` [drawing 50], the “Minimum concentration (g/ml) for inhibition of Lipoxygenase in PMN Leucocytes” value is reported as > 10^-5 g/ml.
`FC(F)(F)c1ccc2c(c1)Nc1[nH]ncc1O2`: the “Minimum concentration (g/ml) for inhibition of Lipoxygenase in PMN Leucocytes” value is given as < 10^-5 g/ml.
On to `CC(=O)n1cc2c(n1)N(C)c1ccccc1O2` [drawing 55], for which the “Minimum concentration (g/ml) for inhibition of Lipoxygenase in PMN Leucocytes” value is recorded as > 10^-5 g/ml.
On the same count and under the same terms, under `c1ccc2c(c1)Oc1cn[nH]c1N2C1CCCCC1` [drawing 56] stands 10^ -6 g/ml; under `c1ccc(N2c3ccccc3Oc3cn[nH]c32)cc1`, 10^-5 g/ml; under `c1ccc2c(c1)Oc1cn[nH]c1N2C1CCCCC1` [drawing 59], > 10^-6 g/ml.
Still for that read-out and setting: under `COc1ccc2c(c1)Oc1cnn(C)c1N2C` stands > 10^-5 g/ml; under `CC(=O)n1cc2c(n1)N(C)c1ccccc1S2`, > 10^-5 g/ml.
As for `c1ccc2c(c1)Oc1cn[nH]c1N2CC1CCCCC1`, the “Minimum concentration (g/ml) for inhibition of Lipoxygenase in PMN Leucocytes” value is 10^-5 g/ml.
Take `COc1ccc2c(c1)Nc1c(cnn1C(C)=O)O2`: the “Minimum concentration (g/ml) for inhibition of Lipoxygenase in PMN Leucocytes” value is recorded as 10^-5 g/ml.
As to `CCOC(=O)CN1c2ccccc2Oc2cn[nH]c21`, the “Minimum concentration (g/ml) for inhibition of Lipoxygenase in PMN Leucocytes” value was > 10^-5 g/ml.
Same read-out and setting: under `Clc1cc(Cl)c2c(c1)Nc1[nH]ncc1O2` stands 10^-6 g/ml; under `CCN1c2cc(OC)ccc2Oc2cnn(C)c21` [Compound 50], 10^-5 g/ml; under `COc1ccc2c(c1)Oc1cn[nH]c1N2C`, < 10^-5 g/ml.
In the case of `Cn1ncc2c1N(c1ccccc1)c1ccccc1C2`, the “Minimum concentration (g/ml) for inhibition of Lipoxygenase in PMN Leucocytes” value was > 10^-5 g/ml.
Still for that read-out and setting: the figure for `CN1c2ccccc2Cc2cnn(-c3ccccc3)c21` is > 10^-5 g/ml; for `CN1c2ccccc2Oc2cn(CCOc3ccc4ccccc4c3)nc21` it is > 10^-5 g/ml.
For `c1ccc(COCCN2c3ccccc3Oc3cn[nH]c32)cc1`, the “Minimum concentration (g/ml) for inhibition of Lipoxygenase in PMN Leucocytes” value was 10^-5 g/ml.
The same measure, in the same setting: the figure for `CCN1c2cc(OCC(=O)O)ccc2Oc2cn(C)nc21` is 10^ -5 g/ml; for `CC(C)N1c2ccccc2Oc2cn[nH]c21` it is < 10^-6 g/ml.
The same measure, in the same setting: under `CCCCOc1ccc2c(c1)N(C)c1[nH]ncc1O2` [Compound 70] stands < 10^-5 g/ml; under `CN1c2nn(C)cc2Cc2cccc(Br)c21` [Compound 30], 10^-5 g/ml; under `COc1ccc2c(c1)N(C)c1[nH]ncc1O2` [drawing 47], < 10^-6 g/ml.
In the case of `COc1ccc2c(c1)N(C)c1nn(C)cc1O2`, the “Minimum concentration (g/ml) for inhibition of Lipoxygenase in PMN Leucocytes” value is reported as > 10^-5 g/ml.
`CN1c2ccccc2Oc2cn(CCO)nc21`: the “Minimum concentration (g/ml) for inhibition of Lipoxygenase in PMN Leucocytes” value is on record as > 10^-5 g/ml.
With `CCN1c2cc(OC)ccc2Oc2cnn(C)c21` [drawing 49], the “Minimum concentration (g/ml) for inhibition of Lipoxygenase in PMN Leucocytes” value is recorded as 10^-6 g/ml.
Take `CC(=O)n1cc2c(n1)N(C)c1ccccc1C2` [drawing 38]: the “Minimum concentration (g/ml) for inhibition of Lipoxygenase in PMN Leucocytes” value is recorded as > 10^-5 g/ml.
In the case of `CC(C)N1c2ccccc2Oc2cn(C)nc21`, the “Minimum concentration (g/ml) for inhibition of Lipoxygenase in PMN Leucocytes” value was > 10^-5 g/ml.
The same measure, in the same setting: the figure for `c1ccc(N2c3ccccc3Cc3cn[nH]c32)cc1` is > 10^-5 g/ml.
Same read-out and setting: under `CN1c2ccccc2Cc2cnn(C(=O)c3ccc(Cl)cc3)c21` stands > 10^-5 g/ml; under `COc1ccc2c(c1)Oc1cn[nH]c1N2`, < 10^-6 g/ml.
Take `CCN1c2cc(OCC(=O)OCc3ccccc3)ccc2Oc2cn(C)nc21`: the “Minimum concentration (g/ml) for inhibition of Lipoxygenase in PMN Leucocytes” value is given as 10^-5 g/ml.
Take `c1c2c(cc3c1OCO3)Oc1cn[nH]c1N2`: the “Minimum concentration (g/ml) for inhibition of Lipoxygenase in PMN Leucocytes” value is on record as < 10^-5 g/ml.
Turning to `COc1ccc2c(c1)Nc1[nH]ncc1O2`, the “Minimum concentration (g/ml) for inhibition of Lipoxygenase in PMN Leucocytes” value is recorded as < 10^-6 g/ml.
Still for that read-out and setting: the figure for `CN1c2ccccc2Cc2cn(C(=O)OCc3ccccc3)nc21` is > 10^-5 g/ml; for `CCN1c2ccc(OC)cc2Oc2cn[nH]c21` it is < 10^-5 g/ml.
With `CCN1c2cc(O)ccc2Oc2cn(C)nc21`, the “Minimum concentration (g/ml) for inhibition of Lipoxygenase in PMN Leucocytes” value is recorded as < 10^-5 g/ml.
Same read-out and setting: under `OCCN1c2ccccc2Oc2cn[nH]c21` stands < 10^-5 g/ml; under `Cn1cc2c(n1)N(Cc1ccccc1)c1ccccc1O2` [Compound 60], > 10^-5 g/ml.
Same read-out and setting: under `Cc1ccc2c(c1)Nc1c(cnn1-c1ccccc1)S2` stands 10^-5 g/ml; under `CN1c2ccccc2Oc2cn(Cc3ccc(Cl)c(Cl)c3)nc21`, > 10^-5 g/ml; under `CN1c2cc(SC(F)(F)F)ccc2Oc2cn[nH]c21` [Compound 71], < 10^-5 g/ml.
For the compound `Cn1cc2c(n1)N(c1ccccc1)c1ccccc1C2`, the “Minimum concentration (g/ml) for inhibition of Lipoxygenase in PMN Leucocytes” value was > 10^-5 g/ml.
For the compound `CN1c2ccccc2Cc2cn(C)nc21`, the “Minimum concentration (g/ml) for inhibition of Lipoxygenase in PMN Leucocytes” value is > 10^-5 g/ml.

The subject of the next assay is carrageenan oedema. Nature of the assay: Inhibition of carrageenan oedema formation. The class given is in vivo. Particulars: rat, oral administration of 25 mg/kg. The text has this:
The compounds according to the invention are also active in vivo. […] The compounds according to the invention also reduce the formation of oedema in the model of carrageenan inflammation, (compare Table 3) and inhibit the formation of metastases from B-16 melanoma (method of Honn, et. al. Science 212, 1270, 1981).
Background: Carrageenan injected into the paw causes an acute inflammation.
`CC(=O)n1cc2c(n1)N(C)c1ccccc1O2` [Compound 44, 2-Acetyl-9-methylpyrazolo[4,3-b][1,4]benzoxazine] registered an inhibition in vivo at 25 mg/kg of 70%.
On to `Clc1ccc2c(c1)Nc1[nH]ncc1O2` [Compound 2], for which at 25 mg/kg the inhibition in vivo was 57.8%.
On the same count and under the same terms, under `Cc1ccc2c(c1)Nc1[nH]ncc1O2` [Compound 3] stands 41.4%.
Still for that read-out and setting: the figure for `CCOC(=O)Cn1cc2c(n1)N(C1CCCCC1)c1ccccc1O2` [Compound 39, Ethyl (9-cyclohexylpyrazolo[4,3-b][1,4]benzoxazin-2-yl) acetate] is 47.5%; for `CN1c2ccccc2Oc2cn(C(=O)c3ccccn3)nc21` [Compound 42] it is 67.3%.

As usually defined, the inhibition in vivo is how much of the control response was suppressed. A low value points to little suppression.

The record behind these values is patent US4552874A, “Pyrazolooxazines, pyrazolothiazines, and pryazoloquinolines and their use as medicaments” (Bayer Aktiengesellschaft, priority 1982, dated 1985).
